Measured values as given in patent publication US10280170B2, “Substituted 4,5,6,7-tetrahydro-pyrazolo[1,5-a]pyrazine derivatives and 5,6,7,8-tetrahydro-4H-pyrazolo[1,5-a][1,4]diazepine derivatives as Ros1 inhibitors” (Janssen Pharmaceutica NV, priority 2014, dated 2019).
Like-named read-outs stand apart in the source and are kept apart here.

Legend:
[1] = test system: HCC78 non-small cell lung cancer cells; experiment: HCC78 cell proliferation assay; assay type: cell-based; settings: Homo sapiens, HCC78, 96 h, read-out: HCC-78 PROL pEC50 (converted)
Procedure: HCC78 Cell Proliferation Assay
Approximately 1000 HCC78 non-small cell lung cancer cells in 180 μl of cell culture medium (RPMI-1640, 10% FBS, 2 mM L-Glutamine, 10 mM Hepes, 1 mM sodium pyruvate, 4.5 g/L glucose, 1.5 g/L sodium bicarbonate, 25 μg/ml Gentamycin) were seeded in each well of a 96-well polystyrene, tissue-culture treated plate and incubated at 37° C. and 5% CO2. After 24 hours, compounds were diluted in cell culture medium from which 20 μl was added to the wells containing cells and incubated for 4 days at 37° C. and 5% CO2. A 5 mg/ml solution of the tetrazolium dye MTT was prepared in PBS (phosphate-buffered saline) and 25 μl was added to each well. After 2 hours the medium was removed and replaced by 125 μL of 4/1 DMSO/glycine buffer (0.1M glycine, 0.1M NaCl, pH 10.5) before absorbance was determined at 538 nm.

[2] = test system: Ba/F3 cells containing Ros1 wild-type protein + IL-3; experiment: Ba/F3-Ros1 cell proliferation counter-screen, wild-type protein in the presence of 10 ng/ml murine IL-3; assay type: cell-based; settings: Mus musculus, BaF3, 24 h, read-out: BaF3-ROS1 + IL3 pIC50 (converted)
Procedure: (§1) This assay was carried out with Ba/F3 cells containing three different versions of Ros1: the wild-type protein, protein with a mutation at the gatekeeper residue (L2026M), and protein with a mutation identified in a tumor from a patient that became resistant to crizotinib (Xalkori®) treatment (G2032R). Compounds were solubilized in 100% DMSO (dimethyl sulfoxide) and sprayed into polystyrene, tissue culture treated 384-well plates. A 50 μl volume of cell culture medium (phenol red free RPMI-1640, 10% FBS (fetal bovine serum), 2 mM L-Glutamine) containing 20000 Ba/F3-Ros1 cells was added to each well and the plates were placed in an incubator at 37° C. and 5% CO2. After 24 hours, 10 μl of Alamar Blue solution (0.5 mM K3Fe(CN)6, 0.5 mM K4Fe(CN)6, 0.15 mM Resazurin and 100 mM Phosphate Buffer) was added to the wells, incubated for 4 hours at 37° C. and 5% CO2 before RFU's (Relative Fluorescence Units) (ex. 540 nm., em. 590 nm.) were measured in a fluorescence plate reader.
As a counter-screen the same experiment was performed for the wild-type protein in the presence of 10 ng/ml murine IL-3.

[3] = target: T1, Ros1 enzyme (Homo sapiens, UniProt P08922); experiment: Ros1 enzymatic assay; assay type: biochemical; settings: Ros1 enzymatic assay; read-out: ROS1 pIC50 (converted)
T1 construct: 0.5 μg/ml Ros1 enzyme
T1 sequence (P08922 28-2347): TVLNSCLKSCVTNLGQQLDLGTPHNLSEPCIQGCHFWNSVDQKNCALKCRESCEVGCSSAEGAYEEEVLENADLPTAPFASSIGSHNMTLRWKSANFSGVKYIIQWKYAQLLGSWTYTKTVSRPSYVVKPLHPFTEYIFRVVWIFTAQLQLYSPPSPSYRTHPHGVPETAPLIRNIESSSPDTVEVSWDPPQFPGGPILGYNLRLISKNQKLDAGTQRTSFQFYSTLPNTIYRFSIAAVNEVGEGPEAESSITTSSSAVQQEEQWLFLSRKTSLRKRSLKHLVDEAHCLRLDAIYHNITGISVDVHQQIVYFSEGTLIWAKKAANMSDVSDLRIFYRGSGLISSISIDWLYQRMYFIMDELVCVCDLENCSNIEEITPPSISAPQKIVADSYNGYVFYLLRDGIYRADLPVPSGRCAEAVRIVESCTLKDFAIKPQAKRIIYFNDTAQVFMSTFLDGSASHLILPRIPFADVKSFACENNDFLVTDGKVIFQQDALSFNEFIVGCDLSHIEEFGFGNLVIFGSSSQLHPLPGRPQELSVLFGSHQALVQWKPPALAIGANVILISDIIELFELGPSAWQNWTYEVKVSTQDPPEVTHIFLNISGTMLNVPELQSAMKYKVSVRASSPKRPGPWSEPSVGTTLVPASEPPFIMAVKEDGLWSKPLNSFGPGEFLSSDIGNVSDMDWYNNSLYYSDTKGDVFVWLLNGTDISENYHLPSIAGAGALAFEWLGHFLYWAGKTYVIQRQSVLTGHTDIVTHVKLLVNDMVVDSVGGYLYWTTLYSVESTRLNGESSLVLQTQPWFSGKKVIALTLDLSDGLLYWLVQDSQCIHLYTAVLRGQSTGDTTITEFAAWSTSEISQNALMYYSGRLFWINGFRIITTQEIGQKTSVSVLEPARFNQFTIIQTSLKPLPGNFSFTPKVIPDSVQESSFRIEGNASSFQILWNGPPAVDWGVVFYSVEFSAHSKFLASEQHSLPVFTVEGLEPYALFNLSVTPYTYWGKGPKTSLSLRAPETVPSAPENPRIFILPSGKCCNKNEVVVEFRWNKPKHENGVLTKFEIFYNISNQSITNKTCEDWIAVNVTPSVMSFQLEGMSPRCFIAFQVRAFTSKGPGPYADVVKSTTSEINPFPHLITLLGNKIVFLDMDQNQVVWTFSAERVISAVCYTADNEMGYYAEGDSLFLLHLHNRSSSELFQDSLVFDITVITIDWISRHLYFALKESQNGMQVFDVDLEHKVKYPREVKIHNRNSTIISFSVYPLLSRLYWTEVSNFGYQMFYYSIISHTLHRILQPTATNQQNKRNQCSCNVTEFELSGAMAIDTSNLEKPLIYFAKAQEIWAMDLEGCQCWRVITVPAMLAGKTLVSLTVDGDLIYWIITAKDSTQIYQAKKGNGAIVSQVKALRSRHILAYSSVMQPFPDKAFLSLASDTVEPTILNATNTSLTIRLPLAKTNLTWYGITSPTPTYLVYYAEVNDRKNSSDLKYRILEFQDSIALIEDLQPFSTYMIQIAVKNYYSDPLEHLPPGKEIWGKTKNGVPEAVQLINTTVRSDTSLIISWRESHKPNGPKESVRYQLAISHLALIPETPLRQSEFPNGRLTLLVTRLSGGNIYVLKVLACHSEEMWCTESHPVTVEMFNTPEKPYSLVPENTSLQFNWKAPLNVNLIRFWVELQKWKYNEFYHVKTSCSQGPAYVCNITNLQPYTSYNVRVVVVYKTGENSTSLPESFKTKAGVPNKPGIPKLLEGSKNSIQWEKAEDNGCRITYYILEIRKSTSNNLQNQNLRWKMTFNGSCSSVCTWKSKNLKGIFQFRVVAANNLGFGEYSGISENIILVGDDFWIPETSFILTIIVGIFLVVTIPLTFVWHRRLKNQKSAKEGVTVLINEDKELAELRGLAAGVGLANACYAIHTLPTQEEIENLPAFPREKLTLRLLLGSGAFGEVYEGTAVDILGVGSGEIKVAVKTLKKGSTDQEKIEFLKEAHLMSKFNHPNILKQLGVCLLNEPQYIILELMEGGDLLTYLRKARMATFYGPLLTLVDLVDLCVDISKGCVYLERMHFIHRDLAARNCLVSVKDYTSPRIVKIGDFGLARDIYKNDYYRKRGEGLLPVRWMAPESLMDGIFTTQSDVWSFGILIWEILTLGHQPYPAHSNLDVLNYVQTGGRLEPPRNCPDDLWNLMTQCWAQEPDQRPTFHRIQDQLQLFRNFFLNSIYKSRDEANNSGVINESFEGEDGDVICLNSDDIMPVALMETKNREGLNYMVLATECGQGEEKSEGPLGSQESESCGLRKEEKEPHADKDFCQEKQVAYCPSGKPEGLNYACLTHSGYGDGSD
Procedure: Compounds were spotted onto white 384-well Proxiplate plus plates (Perkin Elmer) to which 5 μl of enzyme mix (0.5 μg/ml Ros1 enzyme, 50 mM Tris-HCl pH7.5, 1 mM EGTA, 10 mM MgCl2, 0.01% Tween-20) and 5 μl of substrate mix (6 μg/ml IRS-Tide [American Peptide Company], 20 μM ATP, 13.33 μCi/ml ATP (adenosine 5′-triphosphate) P^33, 50 mM Tris-HCl pH7.5, 1 mM EGTA (ethylene glycol-bis(2-aminoethylether)-N,N,N′,N′-tetraacetic acid), 10 mM MgCl2, 0.01% Tween-20) were added. After incubation for 120 minutes at room temperature, 10 μl of stop reaction buffer (5 mM EDTA, 50 μM ATP, 0.1% BSA (bovine serum albumin), 0.1% Triton X-100, 50 mM Tris-HCl pH7.5, 1 mM EGTA, 10 mM MgCl2, 0.01% Tween-20) containing 2 mg/ml streptavidin coupled polystyrene imaging beads (Amersham Biosciences) was added and incubated for 15 minutes at room temperature. Plates were centrifuged for 3 minutes at 1500 rpm and signals detected in a LEADseeker imaging system (GE).

[4] = target: T2, Ba/F3 cells containing Ros1 wild-type protein (Homo sapiens, UniProt P08922, cells depend on it, form not given); experiment: Ba/F3-Ros1 cell proliferation assay, wild-type Ros1; assay type: cell-based, murine; settings: without IL-3
T2 construct: The background only speaks of 'a number of different unrelated proteins' and names SLC34A2-ROS1 for HCC78 cells
T2 sequence (P08922 whole entry, stated change not applied): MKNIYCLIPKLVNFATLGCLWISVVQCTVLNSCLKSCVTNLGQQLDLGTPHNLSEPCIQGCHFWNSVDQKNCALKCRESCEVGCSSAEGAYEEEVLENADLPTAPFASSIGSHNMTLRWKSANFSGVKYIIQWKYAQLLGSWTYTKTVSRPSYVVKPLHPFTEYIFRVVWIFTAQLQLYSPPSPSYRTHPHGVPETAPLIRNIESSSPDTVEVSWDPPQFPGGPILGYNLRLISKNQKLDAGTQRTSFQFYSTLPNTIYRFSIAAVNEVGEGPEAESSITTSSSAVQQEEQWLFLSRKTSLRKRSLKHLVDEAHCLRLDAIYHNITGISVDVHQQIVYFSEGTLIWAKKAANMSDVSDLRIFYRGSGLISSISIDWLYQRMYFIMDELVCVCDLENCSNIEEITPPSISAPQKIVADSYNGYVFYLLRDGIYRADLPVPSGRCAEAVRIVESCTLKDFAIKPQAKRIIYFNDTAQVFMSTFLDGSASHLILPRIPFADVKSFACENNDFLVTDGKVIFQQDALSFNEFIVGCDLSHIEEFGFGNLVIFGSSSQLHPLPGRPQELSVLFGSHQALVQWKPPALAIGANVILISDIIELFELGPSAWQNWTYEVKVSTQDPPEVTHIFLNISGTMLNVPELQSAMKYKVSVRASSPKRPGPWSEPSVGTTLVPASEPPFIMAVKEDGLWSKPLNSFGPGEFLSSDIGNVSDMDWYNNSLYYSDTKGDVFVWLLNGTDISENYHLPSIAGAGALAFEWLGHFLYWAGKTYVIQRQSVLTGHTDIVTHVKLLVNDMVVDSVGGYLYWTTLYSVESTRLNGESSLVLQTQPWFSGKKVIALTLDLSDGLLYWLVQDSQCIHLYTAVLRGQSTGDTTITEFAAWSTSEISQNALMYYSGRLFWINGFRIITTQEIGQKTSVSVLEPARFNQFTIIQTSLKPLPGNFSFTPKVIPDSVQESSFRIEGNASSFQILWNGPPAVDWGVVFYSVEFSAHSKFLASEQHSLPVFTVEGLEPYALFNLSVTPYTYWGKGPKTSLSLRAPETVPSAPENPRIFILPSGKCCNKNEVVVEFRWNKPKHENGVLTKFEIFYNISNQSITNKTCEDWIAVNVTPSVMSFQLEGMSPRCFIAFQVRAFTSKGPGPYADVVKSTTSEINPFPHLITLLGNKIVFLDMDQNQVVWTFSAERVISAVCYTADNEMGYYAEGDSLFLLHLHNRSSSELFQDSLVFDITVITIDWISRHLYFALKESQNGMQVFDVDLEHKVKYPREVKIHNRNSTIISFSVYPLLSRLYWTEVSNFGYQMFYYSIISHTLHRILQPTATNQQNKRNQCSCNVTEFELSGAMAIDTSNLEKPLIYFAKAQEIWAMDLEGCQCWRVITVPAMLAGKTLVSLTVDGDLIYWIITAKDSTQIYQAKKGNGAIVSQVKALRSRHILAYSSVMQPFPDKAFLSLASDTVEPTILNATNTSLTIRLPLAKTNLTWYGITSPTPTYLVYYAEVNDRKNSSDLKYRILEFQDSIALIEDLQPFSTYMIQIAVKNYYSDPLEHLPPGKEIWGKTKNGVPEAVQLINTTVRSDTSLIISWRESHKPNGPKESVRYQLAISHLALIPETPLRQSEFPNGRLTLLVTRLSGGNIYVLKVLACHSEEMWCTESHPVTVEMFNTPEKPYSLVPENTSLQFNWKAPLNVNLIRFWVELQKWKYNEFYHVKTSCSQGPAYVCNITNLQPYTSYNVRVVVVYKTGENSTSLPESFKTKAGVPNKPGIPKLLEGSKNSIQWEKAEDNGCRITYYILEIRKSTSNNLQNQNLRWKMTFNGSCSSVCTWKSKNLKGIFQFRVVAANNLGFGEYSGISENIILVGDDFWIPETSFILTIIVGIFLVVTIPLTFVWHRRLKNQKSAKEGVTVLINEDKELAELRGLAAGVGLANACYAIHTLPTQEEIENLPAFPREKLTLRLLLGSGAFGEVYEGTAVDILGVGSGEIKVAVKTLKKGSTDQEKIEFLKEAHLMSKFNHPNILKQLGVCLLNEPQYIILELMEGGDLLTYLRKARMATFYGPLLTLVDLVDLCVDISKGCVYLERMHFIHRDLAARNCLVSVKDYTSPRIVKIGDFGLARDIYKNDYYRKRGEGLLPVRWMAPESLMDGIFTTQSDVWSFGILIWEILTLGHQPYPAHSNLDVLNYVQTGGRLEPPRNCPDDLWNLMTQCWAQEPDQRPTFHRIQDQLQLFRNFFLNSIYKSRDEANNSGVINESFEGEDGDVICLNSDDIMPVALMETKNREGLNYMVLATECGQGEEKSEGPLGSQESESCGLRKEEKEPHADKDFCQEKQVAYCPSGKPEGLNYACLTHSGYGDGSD
Procedure: (§2) Ba/F3-Ros1 Cell Proliferation Assay
as §1

[5] = target: Ba/F3 cells containing Ros1 with a mutation at the gatekeeper residue (L2026M) (Homo sapiens, UniProt P08922, L2026M, cells depend on it, form not given); experiment: Ba/F3-Ros1 cell proliferation assay, L2026M gatekeeper mutant; assay type: cell-based, murine; settings: without IL-3
Chain of Ba/F3 cells containing Ros1 with a mutation at the gatekeeper residue (L2026M) (P08922 whole entry L2026M, form open): as the sequence (P08922 whole entry, stated change not applied) above, with L2026M counted along it
Procedure: as §2, §1

[6] = counter-screen, wild-type, 10 ng/ml murine IL-3

| Structure (SMILES) | EC50 [1] | CC50 [2] | IC50 [3] | BaF3-ROS1-IL3 pIC50 [4] | Ba/F3 Ros1 L2026M (-IL-3) pIC50 [5] | EC50 ([1]; HCC78 cells, 4 days, MTT) | CC50 [2, 6] |
| --- | --- | --- | --- | --- | --- | --- | --- |
| CC(C)c1ccc(COc2ccc(-c3c(-c4ccncc4)nn4c3C(=O)NCC4)cc2)cc1CC(O)CO (centres unmarked) [Compound 91] | 63.1 nM | > 10000 nM | 31.6 nM | 7.3 | 6.6 | – | – |
| CC(CO)c1ccc(COc2ccc(-c3c(-c4ccncc4)nn4c3C(=O)N(CCO)CC4)cc2)cc1 (centres unmarked) [Compound 128] | 1000 nM | > 10000 nM | 1260 nM | 6.6 | 6.2 | – | – |
| O=C1c2c(-c3ccc(OCc4ccc(C5CC5)nc4)cc3)c(-c3ccncc3)nn2CCN1CC(O)CO (centres unmarked) [Compound 140] | – | – | 251 nM | 6.4 | 5.8 | 2000 nM | > 10000 nM |
| CC(C)c1ccc(C(CO)Oc2ccc(-c3c(-c4ccncc4)nn4c3C(=O)NCC4)cc2)cc1 (centres unmarked) [Compound 146] | – | – | 2000 nM | 6.2 | 7.6 | 3980 nM | > 10000 nM |
| CC(C)c1ccc(COc2ccc(-c3c(-c4ccncn4)nn4c3C(=O)N(CCOCCO)CC4)cc2)cc1 [Compound 162] | 398 nM | > 10000 nM | 79.4 nM | 7.2 | 7.1 | – | – |
| CNC(=O)CN1CCn2nc(-c3ccncn3)c(-c3ccc(OCc4ccc(C(C)C)cc4)cc3)c2C1=O [Compound 164] | – | – | 158 nM | 7.0 | 6.7 | 794 nM | > 10000 nM |
| Fc1cc(OCc2ccc(C3CC3)cc2)ccc1-c1c(-c2ccncc2)nn2c1CNCC2 [Compound 184] | – | – | 100 nM | 7.3 | 6.6 | 251 nM | > 10000 nM |
| CC(C)c1ccc(COc2ccc(-c3c(-c4ccncc4)nn4c3CN(CCO)CC4)c(F)c2)cc1 [Compound 187] | 100 nM | > 10000 nM | 79.4 nM | 7.2 | 6.4 | – | – |
| CC(C)c1ccc(COc2ccc(-c3c(-c4ccncc4)nn4c3C(=O)N(C)C(CO)C4)cc2)cc1 (centres unmarked) [Compound 196] | 631 nM | > 10000 nM | 158 nM | 6.9 | 6.4 | – | – |
| CC(C)c1ccc(COc2cc(F)c(-c3c(-c4ccncc4)nn4c3C(=O)N(CCO)CC4)cc2F)cc1 [Compound 203] | 10 nM | > 10000 nM | 3.98 nM | 8.2 | 8.0 | – | – |
| O=C1c2c(-c3ccc(OCc4ccc(C5CC5)nc4)cc3F)c(-c3ccncc3)nn2CCN1CCO [Compound 207] | 501 nM | > 10000 nM | 20 nM | 7.1 | 6.5 | – | – |
| O=C1c2c(-c3ccc(OCc4ccc(C5CC5)nc4)cc3F)c(-c3ccncc3)nn2CCN1CC(O)CO (centres unmarked) [Compound 208] | – | – | 63.1 nM | 6.8 | 6.3 | 398 nM | > 10000 nM |
| CNC(=O)CN1CCn2nc(-c3ccncc3)c(-c3ccc(OCc4ccc(C(C)C)cc4)cc3F)c2C1 [Compound 209] | 501 nM | 5010 nM | 63.1 nM | 7.5 | 7.5 | – | – |
